Experimental data taken from patent EP2955179A1, “CONDENSED HETEROCYCLIC COMPOUND” (Sumitomo Chemical Company Limited, priority 2013, dated 2014).

Assays:
Type in all cases: in vivo
[1] = test system: Nilaparvata lugens; experiment: Test Example 4: drench at foot of rice seedling, Nilaparvata lugens larvae released; conditions: Nilaparvata lugens, soil, 144 h; active ingredient 500 ppm, 5 ml drench at foot of rice seedling, 7 days at 25°C, then third-fourth instar larvae kept 6 days; read-out: control value
[2] = test system: Plutella xylostella; experiment: Test Example 6: spray on cabbage, Plutella xylostella larvae released; conditions: 120 h, active ingredient 500 ppm, 20 mL/cup sprayed on cabbage, second instar larvae, 25°C for 5 days, read-out: death rate
Experimental: On the other hand, on cabbage at the third leaf stage planted in a polyethylene cup was sprayed, at a rate 20 mL/cup, the test drug solution. After the drug solution was dried, the foliage part was cut off, and then placed in a 50 mL volume cup. Five second instar larvae of Plutella xylostella were released into the cup, and the cup was sealed with a lid. After the cup was kept at 25°C for 5 days, the number of dead insects was counted. The death rate was calculated according to the following equation. Death rate (%) = (Number of dead insects/Number of tested insects) × 100 [formula]

[3] = test system: Blattella germanica; experiment: whole plant or invertebrate; conditions: 144 h, read-out: death rate
Experimental: The formulations of Compounds of Present Invention 1-11, 1-19 and 1-23 as obtained in Formulation Example 5 were diluted with water, so as to have a concentration of the active ingredient of 500 ppm, to prepare a test drug solution.
A filter paper having a diameter of 5.5 cm was spread on the bottom of a polyethylene cup having the same diameter and 0.7 ml of the test drug solution was added dropwise onto the filter paper, and 30 mg of sucrose was uniformly placed as bait. Into the polyethylene cup, 2 male imagoes of Blattella germanica were released, and the cup was sealed with a lid. After 6 days, the life and death of Blattella germanica was examined, the number of dead insects was counted, and the death rate was calculated according to the following equation. Death rate (%) = (Number of dead insects/Number of tested insects) × 100 [formula]

[4] = test system: Culex pipiens pallens; experiment: Test Example 10: Culex pipiens pallens larvae in treated water; conditions: 24 h, active ingredient concentration 3.5 ppm in ion-exchanged water, last-instar larvae, one day later, read-out: death rate
Text: 20 last-instar larvae of Culex pipiens pallens were released into the solution. One day later, the life and death of the Culex pipiens pallens was examined, and the number of dead insects was counted to calculate the death rate. Death rate (%) = (Number of dead insects/Number of tested insects) × 100 [formula]

[5] = test system: Aphis gossypii; experiment: Test Example 1: foliar spray on cucumber seedling inoculated with Aphis gossypii; conditions: 144 h, active ingredient 500 ppm, 20 ml sprayed on cucumber seedling, six days after spraying, read-out: control value
Experimental: On the other hand, on a cucumber seedling (the first true leaf stage) planted in a plastic cup was inoculated with about 30 Aphis gossypii (whole stage), and left for a day. 20 ml of the test drug solution was sprayed on the seedling. Six days after spraying, the number of surviving Aphis gossypii parasitic on the leaves of the cucumber was examined, and the control value was calculated according to the following equation: Control value (%) = {1-(Cb×Tai)/(Cai×Tb)} × 100 [formula] wherein the symbols represent as follows: • Cb: the number of insects in a non-treated section before treatment • Cai: the number of surviving parasitic insects in a non-treated section on observation • Tb: the number of insects in a treated section before treatment • Tai: the number of surviving parasitic insects in a treated section on observation • wherein the non-treated section refers to a section where the test drug solution prepared by diluting the formulation obtained as in Formulation Example 5 but not containing the compound of the present invention with the same amount of water as in the treated section was sprayed.

[6] = test system: Aphis gossypii; experiment: Test Example 2: drench at foot of cucumber seedling, later inoculated with Aphis gossypii; conditions: soil, 144 h, active ingredient 500 ppm, 5 ml drench at foot of cucumber seedling, 7 days at 25°C, then inoculated and kept 6 days, read-out: control value
Experimental: On the other hand, a cucumber seedling (the second true leaf stage) planted in a plastic cup was drenched at its foot with 5 ml of the test drug solution, and kept in a greenhouse at 25°C for 7 days. On the cucumber leaf surface was inoculated about 30 Aphis gossypii (whole stage), and further kept in the greenhouse for 6 days, then the number of surviving Aphis gossypii parasitic on the leaves of the cucumber was examined, and the control value was calculated according to the following equation: Control value (%) = {1-(Cb×Tai)/(Cai×Tb)} × 100 [formula] wherein the symbols represent as follows: • Cb: the number of insects in a non-treated section before treatment • Cai: the number of surviving parasitic insects in a non-treated section on observation • Tb: the number of insects in a treated section before treatment • Tai: the number of surviving parasitic insects in a treated section on observation • wherein the non-treated section refers to a section where the test drug solution prepared by diluting the formulation obtained as in Formulation Example 5 but not containing the compound of the present invention with the same amount of water as in the treated section was sprayed.

CCN(CC)C(=O)c1cnc(-c2nc3cc(C(F)(F)F)cnc3n2C)c(S(=O)(=O)CC)c1 [Compound of Present Invention 1-11, N,N-diethyl-5-ethylsulfonyl-6-(3-methyl-6-trifluoromethyl-3 H-imidazo[4,5-b]pyridin-2-yl)nicotinamide]
mortality at 500 ppm [1]: ≥ 90%
mortality at 500 ppm [2]: ≥ 80%
mortality at 500 ppm [3]: 100%
mortality at 3.5 ppm [4]: ≥ 95%

CCS(=O)(=O)c1cc(C(=O)NC)cnc1-c1nc2cc(C(F)(F)F)cnc2n1C [Compound of Present Invention 1-19]
mortality at 500 ppm [5]: ≥ 90%
mortality at 500 ppm [6]: ≥ 90%
mortality at 500 ppm [1]: ≥ 90%
mortality at 500 ppm [3]: 100%
mortality at 3.5 ppm [4]: ≥ 95%
